Experimental data published in PubChem BioAssay AID256 (DTP/NCI, 2004).
Several values for one entry are separate records, joined by “and”; a condition that tells them apart may be missing. Equal entries are not always repeated. Toxic doses and inconclusive results are not listed.

Test system: CD2F1 mice, L1210 leukemia ip, survival T/C
Test: NCI In Vivo Anticancer Drug Screen. Data for tumor model L1210 Leukemia (intraperitoneal) in CD2F1 (CDF1) mice
Details: higher = longer survival
Method in brief: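 Each value reflects a quotient of treated over vehicle control outcomes in mice with a transplanted tumor.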

[1] = endpoint: mean survival time, dose: 100.0 mg/kg/injection, schedule: Q04DX002 (ip), vehicle: saline with Tween-80
[2] = endpoint: mean survival time, dose: 200.0 mg/kg/injection, schedule: Q04DX002 (ip), vehicle: saline with Tween-80
[3] = endpoint: mean survival time, dose: 50.0 mg/kg/injection, schedule: Q04DX002 (ip), vehicle: saline with Tween-80
[4] = endpoint: mean survival time, dose: 100.0 mg/kg/injection, schedule: Q04DX003 (ip), vehicle: saline with Tween-80
[5] = endpoint: mean survival time, dose: 200.0 mg/kg/injection, schedule: Q04DX003 (ip), vehicle: saline with Tween-80
[6] = endpoint: mean survival time, dose: 400.0 mg/kg/injection, schedule: Q04DX003 (ip), vehicle: saline with Tween-80
[7] = endpoint: mean survival time, dose: 200.0 mg/kg/injection, schedule: Q01DX009 (ip), vehicle: saline with Tween-80
[8] = endpoint: mean survival time, dose: 400.0 mg/kg/injection, schedule: Q01DX009 (ip), vehicle: saline with Tween-80
[9] = endpoint: mean survival time, dose: 50.0 mg/kg/injection, schedule: Q01DX009 (ip), vehicle: Klucel (hydroxypropylcellulose) (HPC)
[10] = endpoint: mean survival time, dose: 100.0 mg/kg/injection, schedule: Q01DX009 (ip), vehicle: Klucel (hydroxypropylcellulose) (HPC)
[11] = endpoint: mean survival time, dose: 200.0 mg/kg/injection, schedule: Q01DX009 (ip), vehicle: Klucel (hydroxypropylcellulose) (HPC)
[12] = endpoint: mean survival time, dose: 100.0 mg/kg/injection, schedule: Q01DX009 (ip), vehicle: saline with Tween-80
[13] = endpoint: mean survival time, dose: 50.0 mg/kg/injection, schedule: Q01DX009 (ip), vehicle: saline with Tween-80
[14] = endpoint: mean survival time, dose: 100.0 mg/kg/injection, schedule: Q01DX001 (ip), vehicle: saline
[15] = endpoint: mean survival time, dose: 200.0 mg/kg/injection, schedule: Q01DX001 (ip), vehicle: saline
[16] = endpoint: mean survival time, dose: 400.0 mg/kg/injection, schedule: Q01DX001 (ip), vehicle: saline

CN(C)CN1C(=O)S/C(=C2\C(=O)N(CN(C)C)c3ccccc32)C1=O
T/C (endpoint: median survival time, dose: 50.0 mg/kg/injection, schedule: Q01DX005 (ip), vehicle: Klucel (hydroxypropylcellulose) (HPC)): 100 % of control
T/C (endpoint: median survival time, dose: 100.0 mg/kg/injection, schedule: Q01DX005 (ip), vehicle: Klucel (hydroxypropylcellulose) (HPC)): 98 % of control
T/C (endpoint: median survival time, dose: 200.0 mg/kg/injection, schedule: Q01DX005 (ip), vehicle: Klucel (hydroxypropylcellulose) (HPC)): 101 % of control

C/C=C/C=C/C(=O)c1cc(C#N)c(OC)cc1O
T/C (endpoint: mean survival time, dose: 100.0 mg/kg/injection, schedule: Q01DX001 (ip), vehicle: saline with Tween-80): 88 % of control
T/C (endpoint: mean survival time, dose: 200.0 mg/kg/injection, schedule: Q01DX001 (ip), vehicle: saline with Tween-80): 88 % of control
T/C (endpoint: mean survival time, dose: 400.0 mg/kg/injection, schedule: Q01DX001 (ip), vehicle: saline with Tween-80): 89 % of control

Cc1ccc(OC(=O)Nc2cccc3ccccc23)cc1C
T/C [1]: 95 % of control
T/C [2]: 91 % of control

[Br][Pt+2][Br].[NH-]C1CCCCC1[NH-] (stereo not given)
T/C (endpoint: mean survival time, dose: 0.78 mg/kg/injection, schedule: Q04DX003 (ip), vehicle: saline with Tween-80): 110 % of control
T/C (endpoint: mean survival time, dose: 1.56 mg/kg/injection, schedule: Q04DX003 (ip), vehicle: saline with Tween-80): 113 % of control

[O-][n+]1ccc(-c2ccccc2)nc1
T/C [3]: 106 % of control
T/C [1]: 103 % of control
T/C [2]: 117 % of control

O=[N+]([O-])c1ccccc1NCCNCCNc1ccccc1[N+](=O)[O-]
T/C [4]: 113 % of control
T/C [5]: 98 % of control
T/C [6]: 98 % of control

C(=N/N=C/c1ccc2c(c1)OCO2)/c1ccco1
T/C [4]: 93 % of control
T/C [7]: 90 % of control
T/C [5]: 96 % of control
T/C [8]: 86 % of control
T/C [6]: 95 % of control

Cc1ccc(C(=O)c2ccc([N+](=O)[O-])cc2)cc1
T/C [4]: 94 % of control
T/C [5]: 94 % of control

CCN(CC)S(=O)(=O)c1ccccc1
T/C [9]: 93 % of control
T/C [10]: 104 % of control
T/C [11]: 96 % of control

Cc1cccn(O)c1=NC(=O)c1ccccc1
T/C [4]: 95 % of control
T/C [5]: 105 % of control
T/C [6]: 86 % of control

Nc1ccc(S(=O)(=O)Nc2ccccc2O)cc1
T/C (endpoint: mean survival time, dose: 3.0 mg/kg/injection, schedule: Q01DX001 (ip), vehicle: saline with Tween-80): 103 % of control
T/C (endpoint: mean survival time, dose: 6.25 mg/kg/injection, schedule: Q01DX001 (ip), vehicle: saline with Tween-80): 103 % of control
T/C (endpoint: mean survival time, dose: 12.5 mg/kg/injection, schedule: Q01DX001 (ip), vehicle: saline with Tween-80): 103 % of control
T/C (endpoint: mean survival time, dose: 25.0 mg/kg/injection, schedule: Q01DX001 (ip), vehicle: saline with Tween-80): 102 % of control
T/C (endpoint: mean survival time, dose: 50.0 mg/kg/injection, schedule: Q01DX001 (ip), vehicle: saline with Tween-80): 102 % of control

Nc1cc(=O)[nH]c(=S)[nH]1.[Pd]
T/C (endpoint: mean survival time, dose: 3.13 mg/kg/injection, schedule: Q04DX003 (ip), vehicle: distilled water + Tween-80): 100 % of control
T/C (endpoint: mean survival time, dose: 6.25 mg/kg/injection, schedule: Q04DX003 (ip), vehicle: distilled water + Tween-80): 100 % of control
T/C (endpoint: mean survival time, dose: 12.5 mg/kg/injection, schedule: Q04DX003 (ip), vehicle: distilled water + Tween-80): 103 % of control
T/C (endpoint: mean survival time, dose: 25.0 mg/kg/injection, schedule: Q04DX003 (ip), vehicle: distilled water + Tween-80): 97 % of control
T/C (endpoint: mean survival time, dose: 50.0 mg/kg/injection, schedule: Q04DX003 (ip), vehicle: distilled water + Tween-80): 97 % of control
T/C (endpoint: mean survival time, dose: 100.0 mg/kg/injection, schedule: Q04DX003 (ip), vehicle: distilled water + Tween-80): 96 % of control
T/C (endpoint: mean survival time, dose: 200.0 mg/kg/injection, schedule: Q04DX003 (ip), vehicle: distilled water + Tween-80): 91 % of control

Cc1cccnc1-n1c(N)cc(=O)[nH]c1=S
T/C [4]: 97 % of control
T/C [5]: 101 % of control
T/C [6]: 100 % of control

O=C(Nc1ccc2ccccc2c1)OC1CCS(=O)(=O)C1 (stereo not given)
T/C (endpoint: mean survival time, dose: 75.0 mg/kg/injection, schedule: Q04DX003 (ip), vehicle: saline): 102 % of control
T/C (endpoint: mean survival time, dose: 150.0 mg/kg/injection, schedule: Q04DX003 (ip), vehicle: saline): 102 % of control
T/C (endpoint: mean survival time, dose: 300.0 mg/kg/injection, schedule: Q04DX003 (ip), vehicle: saline): 98 % of control

O=C(CCC(O)c1ccccc1)c1ccccc1 (stereo not given)
T/C [3]: 97 % of control
T/C [1]: 91 % of control
T/C [2]: 91 % of control

O=C(O)CNC(=O)CCNC(=O)OCc1ccccc1
T/C [12]: 95 % of control
T/C [7]: 93 % of control
T/C [8]: 93 % of control

CC(=O)C(C(C)=O)c1ccc([N+](=O)[O-])cc1[N+](=O)[O-].CC(=O)C(C(C)=O)c1ccc([N+](=O)[O-])cc1[N+](=O)[O-].[Cu]
T/C (endpoint: median survival time, dose: 50.0 mg/kg/injection, schedule: Q04DX002 (ip), vehicle: saline with Tween-80): 88 % of control
T/C (endpoint: median survival time, dose: 100.0 mg/kg/injection, schedule: Q04DX002 (ip), vehicle: saline with Tween-80): 88 % of control
T/C (endpoint: median survival time, dose: 400.0 mg/kg/injection, schedule: Q04DX002 (ip), vehicle: saline with Tween-80): 88 % of control

Cc1c2cc(Cl)c3ccccc3c2c[n+]2ccccc12
T/C (endpoint: mean survival time, dose: 3.12 mg/kg/injection, schedule: Q01DX009 (ip), vehicle: saline with Tween-80): 102 % of control and 106 % of control
T/C (endpoint: mean survival time, dose: 6.25 mg/kg/injection, schedule: Q01DX009 (ip), vehicle: saline with Tween-80): 100 % of control and 109 % of control
T/C (endpoint: mean survival time, dose: 12.5 mg/kg/injection, schedule: Q01DX009 (ip), vehicle: saline with Tween-80): 118 % of control and 102 % of control
T/C (endpoint: mean survival time, dose: 25.0 mg/kg/injection, schedule: Q01DX009 (ip), vehicle: saline with Tween-80): 114 % of control and 104 % of control
T/C [13]: 114 % of control and 110 % of control
T/C [12]: 124 % of control and 102 % of control

O=C(CO)C(O)C(O)C(O)C(O)CO (stereo not given)
T/C [14]: 100 % of control and 105 % of control
T/C [15]: 102 % of control and 94 % of control
T/C [16]: 96 % of control

OC1(c2ccccc2)c2ccccc2C(O)(c2ccccc2)c2c1ccc1ccccc21 (stereo not given)
T/C [13]: 91 % of control
T/C [12]: 94 % of control
T/C [7]: 91 % of control

COC1C(CO)OC(O)C(N)C1OC (stereo not given)
T/C [14]: 103 % of control
T/C [15]: 103 % of control
T/C [16]: 97 % of control

CC(=O)C1=C(C)NC(C)=C(C(C)=O)C1C
T/C [12]: 100 % of control
T/C [4]: 93 % of control
T/C [7]: 95 % of control
T/C [5]: 97 % of control
T/C [6]: 92 % of control

Cc1nc(-c2ccccc2)nc2c1CCO2
T/C [4]: 102 % of control
T/C [5]: 100 % of control
T/C [6]: 105 % of control

CCCC/C=C/C(C)O (stereo not given)
T/C [13]: 100 % of control
T/C [12]: 100 % of control
T/C [4]: 98 % of control
T/C [7]: 95 % of control
T/C [5]: 103 % of control
T/C [6]: 103 % of control

O=C(Nc1ccc(C2=NCCCN2)cc1)c1ccc(NC(=O)c2ccc(C3=NCCCN3)cc2)cc1
T/C (endpoint: mean survival time, dose: 1.0 mg/kg/injection, schedule: Q01DX008 (iv), vehicle: other): 95 % of control
T/C (endpoint: mean survival time, dose: 2.0 mg/kg/injection, schedule: Q01DX008 (iv), vehicle: other): 107 % of control
T/C (endpoint: mean survival time, dose: 4.0 mg/kg/injection, schedule: Q01DX008 (iv), vehicle: other): 189 % of control

CC(=O)OCC1OC(OC2C(COC(C)=O)OC(Sc3ccccc3)C(OC(C)=O)C2OC(C)=O)C(OC(C)=O)C(OC(C)=O)C1OC(C)=O (stereo not given)
T/C (endpoint: mean survival time, dose: 0.78 mg/kg/injection, schedule: Q01DX009 (ip), vehicle: saline with Tween-80): 105 % of control
T/C (endpoint: mean survival time, dose: 1.56 mg/kg/injection, schedule: Q01DX009 (ip), vehicle: saline with Tween-80): 101 % of control
T/C (endpoint: mean survival time, dose: 3.13 mg/kg/injection, schedule: Q01DX009 (ip), vehicle: saline with Tween-80): 101 % of control
T/C [12]: 95 % of control
T/C [7]: 98 % of control
T/C [8]: 93 % of control

COc1ccc(C(=O)O)c(N)c1
T/C [12]: 95 % of control
T/C [4]: 94 % of control
T/C [7]: 92 % of control
T/C [5]: 97 % of control
T/C [8]: 101 % of control
T/C [6]: 97 % of control

OC1C2CC3C1C3C2O (stereo not given)
T/C [4]: 94 % of control
T/C [5]: 97 % of control
T/C [6]: 105 % of control

O=C(O)/C=C\c1ccc(OC(=O)c2ccccc2)cc1
T/C [9]: 96 % of control
T/C [10]: 93 % of control
T/C [11]: 93 % of control

CC(=O)c1cccc2cccc([N+](=O)[O-])c12
T/C [12]: 101 % of control
T/C [4]: 102 % of control
T/C [7]: 102 % of control
T/C [5]: 102 % of control
T/C [8]: 102 % of control
T/C [6]: 100 % of control

CNCCOC(=O)/C=C/c1ccccc1
T/C (endpoint: mean survival time, dose: 100.0 mg/kg/injection, schedule: Q01DX009 (ip), vehicle: saline): 98 % of control
T/C (endpoint: mean survival time, dose: 200.0 mg/kg/injection, schedule: Q01DX009 (ip), vehicle: saline): 95 % of control
T/C (endpoint: mean survival time, dose: 400.0 mg/kg/injection, schedule: Q01DX009 (ip), vehicle: saline): 95 % of control
